The subject of data set [1] is differentiated U-937 cells. In words: Human cellular U-937 autophagy induction assay (anti-LC3). The data set is classed as cell-based. The procedure: The induction of autophagy was monitored using anti-LC3 antibodies to detect LC3 on the autophagosome in human U-937 pro-monocytic histiocytic lymphoma cells (ATCC, Manassas, Va., USA), which generate morphologies characteristic of macrophages upon induction by various stimuli. U-937 cells were cultured in RPMI-1640 medium with L-glutamine and sodium bicarbonate (Sigma-Aldrich, St Louis, Mo.) supplemented with 10% fetal bovine serum (FBS) and 1% penicillin in 25 cm2 tissue flasks at 37° C. in a 5% CO2 humidified atmosphere and passaged every 2-3 days. U-937 cells were seeded in 96 well plates at 5×10^5 cells/mL and stimulated with 100 ng/mL PMA to induce differentiation for 24 hours. The cells were then treated with the various cannabinoids at 1.0 μM concentrations for 12 hours. 30 μM chloroquine was used as a positive control. After treatment, the cells were fixed using 3.7% formaldehyde in PBS for 15 minutes at room temperature and washed with PBS to remove the fixative. Permeabilization reagent (0.2% Triton X-100 in PBS) (Sigma-Aldrich) was added, the cells were incubated for 15 minutes at room temperature and then the cells were washed with PBS to remove the permeabilization reagent. LC3B rabbit polyclonal antibody (Invitrogen) was added at a final concentration of 0.5 μg/ml for 1 hour at room temperature and the cells were washed with PBS remove the primary antibody. Secondary conjugated goat anti-rabbit polyclonal antibody (Thermo Scientific) was then added at a final concentration of 2.0 μg/ml for 1 hour at room temperature. The cells were washed, Hoechst dye was added to stain the nucleus and the cells were imaged using an Arrayscan VTI high-content screening (HCS) reader (Thermo Scientific) with the appropriate filters and the data was analyzed using the vHCS Scan software.
Chloroquine at a concentration of 30 μM was included as a positive control. The ability to induce autophagy was determined as a percentage with respect to the untreated control.

Data set [2] deals with cytokines induced in mice by LPS. The experiment in a line: Mouse LPS cytokine animal model (Example 3), cannabinoids in PB with 5% DMSO. The conditions noted are these: 5 mg/kg. The data set is classed as in vivo. The procedure: This experiment was conducted to compare the ability of CBD, CBDA or the 1:1 equimolar mixture of CBD:CBDA to suppress the induction of cytokines whose expression levels were induced in mice by LPS.
The ability of agents to suppress the immune system can be tested in vivo using an LPS mouse model, in which mice are injected with LPS to cause an immune response (Field et al., 1970; Ghezzi P and Sipe J D, 1988).
Four 20 g female C57BL/6 mice were used per group. The experimental mice were first injected with 0.1 mL of the cannabinoids prepared at 1 mg/mL in phosphate buffer (PB) with 5% DMSO to yield a final dose of 5 mg/kg, followed one hour later by the injection of 0.1 mL of 0.02 mg/mL LPS in PB to yield a final dose of 0.1 mg/kg. Mice injected with 0.1 mL of PB with 5% DMSO and 0.1 mL of PBS served as a non-induced control and mice injected with 0.1 mL of PB with 5% DMSO and 0.1 mL of 0.02 mg/mL LPS in PB served as a LPS untreated control. After allowing two hours for the immune system to be induced by LPS, the mice were then euthanized, heart punctures performed to extract the blood, which was allowed to coagulate on ice for 1 hour before centrifuging to isolate the serum. The levels of 32 of the most common mouse cytokines (Eve Technologies, Calgary, Canada, Table 9) were determined by multi-plex analysis.

Data set [3] concerns cytokine levels in differentiated THP-1 cells treated with LPS. In words: THP-1 human cellular LPS cytokine assay, three independent experiments, total averaged suppression.
Data set [4] has the same test system. In words: THP-1 human cellular LPS cytokine assay, four independent experiments, per cytokine. The class given is cell-based. As to conditions: LPS 20 ng/mL.
Data set [5] in a line: DPPH antioxidant assay. The data set is classed as biochemical. The conditions noted are these: 100 μM. The procedure:
The ability of the cannabinoids to act as potential antioxidants was assessed using the 2,2-diphenyl-1-picrylhydrazyl (DPPH) antioxidant assay. The cannabinoids CBDA, CBD, CBDVA, CBDV, CBG, THCV, and the 1:1 CBD:CBDA mixture had the highest antioxidant activities with radical scavenging activities of 38.19%, 48.00%, 43.81%, 44.21%, 44.28%, 45.71%, and 43.74%, respectively.
The 2,2-diphenyl-1-picrylhydrazyl (DPPH) free radical (Alfa Aesar) was prepared at 0.1 mM in ethanol. The cannabinoids were tested at a final concentration of 100 uM. 2 uL of 7.5 mM stock solutions of the cannabinoids to be tested in DMSO were added to 148 uL of 0.1 mM DPPH to achieve a final concentration of 100 μM in the assay. Ascorbic acid (Thermo Scientific) at a final concentration of 10 mg/ml was used as a positive control. The reaction mixture was incubated in the dark at room temperature for 1 hour, the absorbance of the mixture was read at 517 nm using a Spectra Max 5M microplate reader (Molecular Devices, LLC, Sunnyvale, Calif., USA) and the absorbance was converted to percent radical scavenging activity (% RSA) using the following formula: % RSA=[(Absorbance of the control−Absorbance of the sample)/(Absorbance of the control)]×100.
Free radical production occurs when the immune system is activated and antioxidants represent potential effective treatments for inflammatory conditions and autoimmune diseases. […] The DPPH antioxidant assay can be used to measure the ability of a compound to scavenge free radicals by measuring the ability of compounds to hydrogenate and reduce DPPH. The DPPH assay was conducted on CBCA, CBDA, CBDVA, CBGA, CBLA, CBNA, THCVA, and their decarboxylated derivatives as well as the 1:1 CBD:CBDA mixture.

For data set [6], the system named is cytokines induced in mice by LPS. The experiment in a line: Mouse LPS cytokine model, Example 6D, ALA, DHA and EPA omega-3 samples. As to conditions: mouse, in vivo. The class given is in vivo. The procedure: A series of experiments using a mouse LPS cytokine animal model were performed. In the mouse LPS cytokine animal model, mice were injected with LPS, which induced the immune response shortly after the mice were injected with one of the potential anti-inflammatory compounds under evaluation (the “test compound”). The efficacy of the test compound was evaluated based on its ability to reduce expression levels of inflammatory cytokines that were elevated due to the immune response. The test compounds included a cannabinoid, an omega fatty acid, and a cannabinoid-omega fatty acid composition.
The mice were intraperitoneally injected with 0.1 mL of the test compound. One hour later, the mice were intraperitoneally injected with 0.1 mL of LPS in phosphate buffered saline (PBS). Four hours later, a heart puncture was performed and the blood was allowed to clot to generate serum. 0.1 mL of the serum was diluted 1:2 with PBS and stored at −80° C. The serum was then sent to a laboratory where a mouse cytokine array/chemokine array 31-plex (MD31) analysis was performed that analyzed the expression levels of the 32 cytokines/chemokines listed in Table 9, above.
For each considered test compound, the ability of the test compound to suppress each inflammatory cytokine was calculated by determining the percent suppression.
36 female C57BL/6 mice that weighed approximately 20 g each were obtained and allowed to acclimate for one week after arrival with unlimited access to food and water. On the day of the study, the mice were weighed and split into eight groups of four mice each so that the average weight of each group was as close as possible to each other.
All of the omega fatty acid samples that were tested were diluted so the dose was 12.5 mg of total omega fatty acids per mouse. […] The omega fatty acids samples tested included: (1) pollock oil, 456 mg/mL omega unsaturated fatty acids. The pollock oil contained a mixture of anti-inflammatory omega-3, omega-7 and omega-9 unsaturated fatty acids. […] (2) Flaxseed oil, 656 mg/mL anti-inflammatory omega unsaturated fatty acids. The flaxseed oil contained a mixture of anti-inflammatory omega-3 and omega-9 unsaturated fatty acids. The omega-3 and omega-9 unsaturated fatty acids constituted 77.6% and […], respectively, of the anti-inflammatory omega fatty acids contained in the flaxseed oil. A 12.5 mg dose contained 9.7 mg of ALA in the triglyceride form. (3) Mono 2:1 DHA:EPA, 744 mg/mL omega-3 unsaturated fatty acids that were primarily DHA or EPA. A 12.5 mg dose contained 7.81 mg of DHA and 3.91 mg of EPA. The omega-3 unsaturated fatty acids were in the free mono form. […] A 12.5 mg dose contained 3.85 mg of DHA and 7.69 mg of EPA. The omega-3 unsaturated fatty acids were in the free mono form. (5) Tri 2:1 DHA:EPA, 678.9 mg/mL omega-3 unsaturated fatty acids that were primarily DHA or EPA. A 12.5 mg dose contained 7.88 mg of DHA and 3.94 mg of EPA. The omega-3 unsaturated fatty acids were in the triglyceride form. (6) Tri 1:2 DHA:EPA, 678.9 mg/mL omega-3 unsaturated fatty acids that were primarily DHA or EPA. A 12.5 mg dose contained 3.60 mg of DHA and 7.19 mg of EPA. The omega-3 unsaturated fatty acids were in the triglyceride form.

For data set [7] the following is noted: rats; cited from earlier work.

As to `C=C(C)[C@@H]1CCC(C)=C[C@H]1c1c(O)cc(CCCCC)c(C(=O)O)c1O` [CBDA, 2,4-Dihydroxy-3-[(1R,6R)-6-isopropenyl-3-methyl-2-cyclohexen-1-yl]-6-pentylbenzoic acid], the “Fluorescence (LC3)” value in data set [1] (1.0 μM, 12 hours) worked out at 37.64. Moreover, the activation at 1 µM in data set [1] (Homo sapiens, U-937, 12 h, read-out: Induction of autophagy with respect to the untreated control) is -22%. In addition, in data set [2], the Average cytokine suppression is reported as 13.71%, the GM-CSF suppression was found to be 27.86%, the IFNγ suppression stood at 31.60% and the IL-1β suppression worked out at 11.89%. In data set [2], the IL-2 suppression is 7.82%, the IL-6 suppression is recorded as 6.09%, the “IL-12β p40 suppression” value was found to be 58.93% and the IL-13 suppression is listed as 4.16%. In data set [2], this compound had an IL-17 suppression of 7.86%, an IP-10 suppression of 4.58%, a KC suppression of 18.15% and an LIF suppression of 28.12%. For the same compound, in data set [2], the M-CSF suppression is reported as −51.56%, the MIP-1α suppression is listed as 14.86%, the MIP-1β suppression came to 9.12% and the MIP-2 suppression is listed as 20.19%. The same compound showed a TNF-α suppression in data set [2] of 19.69%. The “effectiveness at reducing elevated cytokine levels relative to dexamethasone” value in data set [3] is “at least half as effective as dexamethasone”. Also, the inhibition at 2 µM in data set [3] (Homo sapiens, THP-1, 4 h, read-out: % Cytokine Suppression (total averaged)) was found to be 37.2%. In data set [4] (2 µM), this compound registered an EGF suppression of 5.34%, an FGF-β suppression of 30.37%, a Flt-3L suppression of 47.81% and a G-CSF suppression of 77.66%. In data set [4] (2 µM), the GM-CSF suppression was 43.68%, the IFNγ suppression is given as 60.44%, the IL-1α suppression is reported as 44.04% and the IL-1β suppression amounted to 53.82%. Further, in data set [4] (2 µM), the IL-4 suppression came out at 10.49%, the IL-6 suppression is 69.39%, the IL-7 suppression was determined as 37.62% and the IL-10 suppression was 23.20%. In data set [4] (2 µM), the “IL-12 p70 suppression” value amounted to 8.24%, the IL-15 suppression worked out at 47.99%, the IL-18 suppression came out at 37.34% and the IP-10 suppression came out at 73.87%. In data set [4] (2 µM), this compound registered an MCP-1 suppression of 54.97%, an MIP-1β suppression of 47.92%, a TNFα suppression of 28.56% and a TNFβ suppression of 45.83%. The Average cytokine suppression in data set [4] is given as 42.43%. For the same compound, in data set [5], the “radical scavenging activity compared to the untreated control” value was “at least two-fold”. For the same compound, in data set [5] (1 hour), the “% RSA (radical scavenging activity)” value is 38.19%.
Consider `CC/C=C\C/C=C\C/C=C\C/C=C\C/C=C\C/C=C\CCC(=O)O` [DHA, (4Z,7Z,10Z,13Z,16Z,19Z)-docosa-4,7,10,13,16,19-hexaenoic acid], for which the “anti-inflammatory capability among ALA, DHA and EPA” value in data set [6] was “highest anti-inflammatory capability”.
With `C[S+](C)[O-]` [dimethyl sulfoxide], the LD50 in data set [7] is listed as 14,500 mg/kg.
As for `CC(O)CO` (centres unmarked) [propylene glycol], in data set [7], the LD50 is listed as 20,000 mg/kg.
